According to ChEMBL document CHEMBL1201862, “PubChem BioAssay data set” (2004):
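Protocol summary: plate cells (96-well), add compound at 5 concentrations, incubate 48 h, interpolate endpoints linearly. GI50 marks 50% less growth.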 The source made the active and inactive calls. No stated cut-off is given here; in the data, active = GI50 up to about 1.1 µM and inactive = higher.

Legend:
Experiment in all cases: inhibition of tumour cell growth, NCI panel, 48 h
ACHN = tested on: ACHN
MOLT-4 = tested on: MOLT-4
A498 = tested on: A498
NCI-H23 = tested on: NCI-H23
UACC-257 = tested on: UACC-257
NCI-H460 = tested on: NCI-H460
OVCAR-4 = tested on: OVCAR-4
EKVX = tested on: EKVX
U-251 = tested on: U-251
MCF7 = tested on: MCF7
SK-MEL-5 = tested on: SK-MEL-5
SF-539 = tested on: SF-539
BT-549 = tested on: BT-549
SF-268 = tested on: SF-268
M14 = tested on: M14
HCC 2998 = tested on: HCC 2998
HCT-15 = tested on: HCT-15
SF-295 = tested on: SF-295
K562 = tested on: K562
TK-10 = tested on: TK-10
HCT-116 = tested on: HCT-116
OVCAR-8 = tested on: OVCAR-8
PC-3 = tested on: PC-3
RXF 393 = tested on: RXF 393
NCI/ADR-RES = tested on: NCI/ADR-RES
SR = tested on: SR
MDA-MB-435 = tested on: MDA-MB-435
UO-31 = tested on: UO-31
Malme-3M = tested on: Malme-3M
LOX IMVI = tested on: LOX IMVI
CCRF-CEM = tested on: CCRF-CEM
HOP-92 = tested on: HOP-92
IGROV-1 = tested on: IGROV-1
MDA-N = tested on: MDA-N
SN12C = tested on: SN12C
RPMI-8226 = tested on: RPMI-8226
SW-620 = tested on: SW-620
HL-60 = tested on: HL-60
DU-145 = tested on: DU-145
A549 = tested on: A549
NCI-H226 = tested on: NCI-H226
SK-MEL-28 = tested on: SK-MEL-28
Hs-578T = tested on: Hs-578T
SNB-19 = tested on: SNB-19
786-0 = tested on: 786-0
HT-29 = tested on: HT-29
KM12 = tested on: KM12
HOP-62 = tested on: HOP-62
OVCAR-5 = tested on: OVCAR-5
CAKI-1 = tested on: CAKI-1
OVCAR-3 = tested on: OVCAR-3
MDA-MB-231 = tested on: MDA-MB-231
UACC-62 = tested on: UACC-62
SK-OV-3 = tested on: SK-OV-3
T47D = tested on: T47D
NCI-H522 = tested on: NCI-H522
COLO 205 = tested on: COLO 205
SK-MEL-2 = tested on: SK-MEL-2

Measured: GI50

CC(C)(C)OC(=O)C1C(=O)NC(=O)CC1CC(OCc1ccccc1)C(COCc1ccccc1)OCc1ccccc1 (stereo not drawn)
4.41 µM: HCT-15
inactive: ACHN 10.2 µM | MOLT-4 2.88 µM | A498 26.5 µM | NCI-H23 10.1 µM | UACC-257 15.5 µM | NCI-H460 13.4 µM | OVCAR-4 6.55 µM | EKVX 16.5 µM | U-251 5.18 µM | MCF7 4.51 µM | SK-MEL-5 12.6 µM | SF-539 10.9 µM | BT-549 5.48 µM | SF-268 11.3 µM | M14 14 µM | HCC 2998 3.81 µM | SF-295 8.38 µM | K562 5.19 µM | TK-10 > 100 µM | HCT-116 5.36 µM | OVCAR-8 10.3 µM | PC-3 6.44 µM | RXF 393 2.55 µM | NCI/ADR-RES 10 µM | SR 3.87 µM | MDA-MB-435 5.3 µM | UO-31 2.19 µM | Malme-3M 3.06 µM | LOX IMVI 10.9 µM | CCRF-CEM 11.6 µM | HOP-92 11.9 µM | IGROV-1 23.2 µM | MDA-N 16.2 µM | SN12C 25 µM | RPMI-8226 3.07 µM | SW-620 9.33 µM | HL-60 1.97 µM | DU-145 23.6 µM | A549 5.06 µM | NCI-H226 10.9 µM | SK-MEL-28 29.4 µM | Hs-578T 14 µM | SNB-19 20.6 µM | 786-0 6.79 µM | HT-29 3.45 µM

CCCCCCc1cc(C=O)sc1-c1ccc(-c2sc(-c3ccc(-c4ccc(-c5cc(CCCCCC)c(-c6ccc(-c7sc(C=O)cc7CCCCCC)s6)s5)s4)s3)cc2CCCCCC)s1
> 100 µM: HCT-15
inactive: KM12 > 100 µM | ACHN > 100 µM | MOLT-4 > 100 µM | A498 > 100 µM | NCI-H23 > 100 µM | HOP-62 > 100 µM | UACC-257 > 100 µM | NCI-H460 > 100 µM | OVCAR-4 > 100 µM | EKVX > 100 µM | U-251 > 100 µM | OVCAR-5 > 100 µM | MCF7 > 100 µM | SK-MEL-5 > 100 µM | SF-539 > 100 µM | BT-549 > 100 µM | CAKI-1 > 100 µM | SF-268 85.9 µM | M14 > 100 µM | HCC 2998 > 100 µM | SF-295 > 100 µM | K562 > 100 µM | TK-10 > 100 µM | HCT-116 > 100 µM | OVCAR-8 > 100 µM | PC-3 > 100 µM | RXF 393 > 100 µM | OVCAR-3 > 100 µM | NCI/ADR-RES > 100 µM | SR > 100 µM | MDA-MB-435 > 100 µM | UO-31 > 100 µM | MDA-MB-231 > 100 µM | Malme-3M > 100 µM | LOX IMVI > 100 µM | UACC-62 > 100 µM | CCRF-CEM > 100 µM | HOP-92 > 100 µM | IGROV-1 > 100 µM | MDA-N > 100 µM | SN12C > 100 µM | SK-OV-3 > 100 µM | T47D > 100 µM | RPMI-8226 > 100 µM | SW-620 > 100 µM | HL-60 > 100 µM | DU-145 > 100 µM | NCI-H522 91.4 µM | A549 > 100 µM | NCI-H226 28.4 µM | SK-MEL-28 > 100 µM | SNB-19 > 100 µM | 786-0 > 100 µM | COLO 205 > 100 µM | HT-29 > 100 µM | SK-MEL-2 > 100 µM
